Data as given in patent US7875647B2, “Heteroaryl-pyrazole derivatives as cannabinoid CB1 receptor antagonists” (Green Cross Corporation, priority 2006, dated 2011).

Each molecule was assayed against T1, Cannabinoid-1 receptor (CB1R) (Rattus norvegicus, UniProt P20272) (assay: Cannabinoid-1 receptor (CB1R) binding affinity assay ([3H]CP-55940, rat CB-1 receptor binding protocol)). Conditions: IC50(nM), brain tissue of SD rats, [3H]CP-55940, 30° C. 60 min.
T1 construct: The tissue obtained from the brain of SD rats was homogenized; from tissue; host or cells: brain of SD rats (membrane pellet of the homogenate)
T1 sequence (P20272 whole entry): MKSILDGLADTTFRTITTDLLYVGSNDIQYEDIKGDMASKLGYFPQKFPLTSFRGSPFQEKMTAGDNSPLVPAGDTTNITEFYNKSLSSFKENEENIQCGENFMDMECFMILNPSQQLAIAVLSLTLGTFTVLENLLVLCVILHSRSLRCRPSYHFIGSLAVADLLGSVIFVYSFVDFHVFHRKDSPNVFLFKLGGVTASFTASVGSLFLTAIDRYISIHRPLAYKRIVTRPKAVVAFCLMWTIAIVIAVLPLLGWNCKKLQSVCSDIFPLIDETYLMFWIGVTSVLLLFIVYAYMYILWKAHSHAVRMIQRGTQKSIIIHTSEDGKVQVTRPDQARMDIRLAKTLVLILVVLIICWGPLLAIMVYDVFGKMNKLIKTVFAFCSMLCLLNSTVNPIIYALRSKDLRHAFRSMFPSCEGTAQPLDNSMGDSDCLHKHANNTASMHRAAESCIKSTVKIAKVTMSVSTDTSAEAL

Row | SMILES | IC50
1 | CCc1c(-c2nnc(C3(CC)CC3)o2)nn(-c2ccc(Cl)cc2Cl)c1-c1ccc(Br)cc1 [Example 279, 2-(5-(4-bromophenyl)-1-(2,4-dichlorophenyl)-4-ethyl-1H-pyrazol-3-yl)-5-(1-ethylcyclopropyl)-1,3,4-oxadiazole] | 12.8 nM
2 | CCCCC(C)c1nnc(-c2nn(-c3ccc(Cl)cc3Cl)c(-c3ccc(Br)cc3)c2C)s1 (stereo not shown) [Example 380, 2-(5-(4-Bromophenyl)-1-(2,4-dichlorophenyl)-4-methyl-1H-pyrazol-3-yl)-5-(hexan-2-yl)-1,3,4-thiadiazole] | 11.5 nM

Same assay, conditions: brain tissue of SD rats, [3H]CP-55940, 30° C. 60 min; read-out: IC50

Row | SMILES | IC50
3 | Cc1c(-c2nnnn2C23CC4CC(CC(C4)C2)C3)nn(-c2ccc(Cl)cc2Cl)c1-c1ccc(Cl)cc1 [Example 605, 1-Adamantyl-5-(5-(4-chlorophenyl)-1-(2,4-dichlorophenyl)-4-methyl-1H-pyrazol-3-yl)-1H-tetrazole] | 128 nM
4 | Cc1c(-c2nnnn2Cc2ccccn2)nn(-c2ccc(Cl)cc2Cl)c1-c1ccc(Cl)cc1 [Example 583, 2-((5-(5-(4-Chlorophenyl)-1-(2,4-dichlorophenyl)-4-methyl-1H-pyrazol-3-yl)-1H-tetrazol-1-yl)methyl)pyridine] | 105 nM
5 | CCc1c(-c2nnc(C3(c4ccc(Cl)cc4)CCCC3)s2)nn(-c2ccc(Cl)cc2Cl)c1-c1ccc(Br)cc1 [Example 486, 2-(5-(4-bromophenyl)-1-(2,4-dichlorophenyl)-4-ethyl-1H-pyrazol-3-yl)-5-(1-(4-chlorophenyl)cyclopentyl)-1,3,4-thiadiazole] | 23 nM
6 | Cc1c(-c2nnc(C3CCC3)s2)nn(-c2ccc(Cl)cc2Cl)c1-c1ccccc1 [Example 423, 2-cyclobutyl-5-(1-(2,4-dichlorophenyl)-4-methyl-5-phenyl-1H-pyrazol-3-yl)-1,3,4-thiadiazole] | 168 nM
7 | CCCCCCn1nnnc1-c1nn(-c2ccc(Cl)cc2Cl)c(-c2ccc(Cl)cc2)c1C [Example 603, 5-(5-(4-Chlorophenyl)-1-(2,4-dichlorophenyl)-4-methyl-1H-pyrazol-3-yl)-1-hexyl-1H-tetrazole] | 50.6 nM
8 | Cc1c(-c2nnc(CC(F)(F)F)o2)nn(-c2ccc(Cl)cc2Cl)c1-c1ccc(Cl)cc1 [Example 136, 2-(5-(4-chlorophenyl)-1-(2,4-dichlorophenyl)-4-methyl-1H-pyrazol-3-yl)-5-(2,2,2-trifluoroethyl)-1,3,4-oxadiazole] | 74.2 nM
9 | CCC(C)c1nc(-c2nn(-c3ccc(Cl)cc3Cl)c(-c3ccc(Cl)cc3)c2C)n[nH]1 (stereo not shown) [Example 622, 5-sec-butyl-3-(5-(4-chlorophenyl)-1-(2,4-dichlorophenyl)-4-methyl-1H-pyrazol-3-yl)-1H-1,2,4-triazole] | 840 nM

The next lines start with the values.

Row | IC50 | SMILES
10 | 14.2 nM | CCc1c(-c2nnnn2C2CCCC2)nn(-c2ccc(Cl)cc2Cl)c1-c1ccc(Br)cc1 [Example 609, 5-(5-(4-bromophenyl)-1-(2,4-dichlorophenyl)-4-ethyl-1H-pyrazol-3-yl)-1-cyclopentyl-1H-tetrazole]
11 | 9.27 nM | Cc1c(-c2nnc(C(C)(C)c3ccccc3)s2)nn(-c2ccccc2Cl)c1-c1ccc(Cl)cc1 [Example 416, 2-(1-(2-chlorophenyl)-5-(4-chlorophenyl)-4-methyl-1H-pyrazol-3-yl)-5-(2-phenylpropan-2-yl)-1,3,4-thiadiazole]
12 | 7.6 nM | CCc1c(-c2nnc(C3(c4ccc(OC)cc4)CC3)s2)nn(-c2ccc(Cl)cc2Cl)c1-c1ccc(Cl)cc1 [Example 481, 2-(5-(4-chlorophenyl)-1-(2,4-dichlorophenyl)-4-ethyl-1H-pyrazol-3-yl)-5-(1-(4-methoxyphenyl)cyclopropyl)-1,3,4-thiadiazole]
13 | 7.51 nM | Cc1c(-c2nnc(C3(c4ccc(Cl)cc4)CCC3)o2)nn(-c2ccccc2Br)c1-c1ccc(Cl)cc1 [Example 159, 2-(1-(2-bromophenyl)-5-(4-chlorophenyl)-4-methyl-1H-pyrazol-3-yl)-5-(1-(4-chlorophenyl)cyclobutyl)-1,3,4-oxadiazole]
